Assay results taken from a melting point compilation (Tetko et al.; mined from patent text by program, amines drawn as free bases though some values may be those of a salt).

Row | Structure (SMILES) | melting point
1 | COc1cc(Cc2c(N)nc(N)nc2Cl)cc(OC)c1N | 222 to 224 °C
2 | CCCCCCCCCCCCNC(=O)Nc1sc(C(=O)O)c(C)c1C(=O)OC(C)(C)C | 187 to 188 °C
3 | N#Cc1ccc(N2C(=O)NC3(CCS(=O)CC3)C2=O)cc1C(F)(F)F (centres undefined) | 260 to 277 °C
4 | CCOC(=O)C=CC(C)=CC=C(C)C=CC1=C(C)CCCC1(C)C | 65 to 66 °C
5 | O=c1[nH]c(=O)c2cc(Oc3ccc(F)cc3F)ncc2[nH]1 | > 300 °C
6 | CS(=O)(=O)c1ccc(/C(=C\C2CCCCC2)C(=O)O)cc1C(F)(F)F | 62 to 64 °C
7 | N#CCN1CCC(=C2c3ccccc3CCn3ccnc32)CC1 | 220 °C
8 | CC(C)Sc1c(N)cccc1C#N | 82 °C
9 | CC(=O)CC(O)c1ccc([N+](=O)[O-])cc1 (centres undefined) | 62 °C
10 | O=C1c2ccccc2C(Nc2ccccc2)N1CCCN1CC=C(c2ccccc2)CC1 (centres undefined) | 119 °C
11 | N#CCc1cccc2nnsc12 | 78 to 80 °C
12 | COc1cc(OC)cc(-c2ncoc2-c2ccc(OC)c(O)c2F)c1 | 168 to 172 °C
13 | Cc1ccc(CO)cc1NC(=O)CC12CC3CC(CC(C3)C1)C2 | 190 °C
14 | CC1OC(Cn2cncn2)(c2ccccc2)C1(C)C (centres undefined) | 102 °C
15 | CON=C1CCC1N1CCC(Cc2ccc(Cl)cc2)CC1 (centres undefined) | 127 to 128 °C
16 | O=[N+]([O-])c1ccc(OC2SCC(O)C(O)C2O)cc1 (centres undefined) | 130 to 132 °C
17 | COC1CCN(C2CCN(c3ccc(N)cc3C#N)CC2)CC1 | 125 to 130 °C
18 | O=c1[nH]c2cc(Cl)ccc2c(=O)n1-c1ccccc1 | > 300 °C
19 | CC(=O)NC[C@H]1CN(c2ccc(N3CCC(O)(CN4CCOCC4)CC3)c(F)c2)C(=O)O1 | 184 to 186 °C
20 | CC(=O)Nc1ncc(C23CCCN(CC2)C3)o1 (centres undefined) | 142 to 143 °C
21 | CCCN(CCC)C(=O)c1n[nH]c2c(=O)[nH]c3cc(Cl)ccc3c(=O)c12 | 270 °C

Row | Structure (SMILES) | melting point
22 | CN(C)c1ccc(-c2cncc(OC3SCC(O)C(O)C3O)c2)cc1 (centres undefined) | 240 °C
23 | O=c1c2ccccc2cc2n1CCCCC2 | 99 to 101 °C
24 | O=C(Nc1ccc(F)cc1)C12CC3CC(CC(C3)C1)C2 | 170 to 171 °C
25 | COc1cc(OC(=O)C(C)C)c2c(=O)c(OC)c(-c3ccc(OC(=O)C(C)(C)C)c(OC)c3)oc2c1 | 151 to 152 °C
26 | CN1CCc2cc(O)c(O)c(Sc3ccc([N+](=O)[O-])cc3)c2CC1 | 125 to 127 °C
27 | O=C1CCC(N2C(=O)c3cccc(CNC(=O)c4cnccn4)c3C2=O)C(=O)N1 (centres undefined) | > 260 °C
28 | CC(CCCCC(=O)O)C1CCC2C3CCC4CC(O)CCC4(C)C3CC(O)C12C (centres undefined) | 191 to 193 °C
29 | CC(=O)NCC1CN(c2ccc(N3CCN(c4nc5ccc([N+](=O)[O-])cc5s4)CC3)c(F)c2)C(=O)O1 (centres undefined) | 216 to 217 °C
30 | C=CCc1c[nH]c2c([N+](=O)[O-])cccc2c1=O | 242 °C
31 | FC(F)(F)c1ccc(-c2nc(Br)cc(Br)n2)cc1 | 87 °C
32 | COC[C@H]1CCCN1S(=O)(=O)c1ccc2c(c1)C(=O)C(=O)N2 | 161 to 164 °C
33 | CCC(COC)n1cnc2c(Nc3ccc(C(F)(F)F)cc3Br)nc(C)nc21 (centres undefined) | 123 to 124 °C
34 | O=Cc1cc([N+](=O)[O-])ccc1OC(F)(F)F | 32 to 34 °C
35 | Nc1c([N+](=O)[O-])sc2c(Cl)cc(Cl)cc12 | 290 to 292 °C
36 | Cc1ccc(N2C(=O)C(O)=C(C(=O)c3ccc(N4CCOCC4)cc3)C2c2ccc(OC(F)(F)F)cc2)nn1 (centres undefined) | 234 °C
37 | Clc1cc(-c2cnco2)nc(Cl)c1Cl | 128 to 130 °C
38 | NC1=NS(=O)N=C1NCCCNc1ccc(Br)cn1 (centres undefined) | 215 to 216 °C
39 | CCCN1CC(=O)C(C(=O)OCC)C1=O (centres undefined) | 123 to 125 °C
40 | N#Cc1c(OCC(F)(F)F)nc(C2CC2)nc1N1CCc2ccccc2CC1 | 116 to 118 °C
41 | COCCCN1CCC(CNC(=O)c2cc(Cl)c(N)n3cc(C)nc23)CC1 | 167 °C
42 | CC1(C)CC(=O)c2ccc(Cl)cc2O1 | 63 to 66 °C

Further lines, results first:

Row | melting point | Structure (SMILES)
43 | 141 to 142 °C | CC(C)Cc1nn(C)c(=O)c2c(SCCCO)n(Cc3cccc4ccccc34)nc12
44 | 100 to 103 °C | CCCc1c(OCC(O)COc2ccc(C(=O)O)cc2Cl)ccc(C(C)=O)c1O (centres undefined)
45 | 191 to 193 °C | CN(C)CCCOc1ccc(/C=C/C(=O)O)cc1
46 | 97 to 98 °C | COc1cccc(CC(=O)O)c1OCCCc1cc(OC(C)C)nn1Cc1c(F)cccc1Cl
47 | 86 to 88 °C | O=C(O)CCC(CCCCNS(=O)(=O)c1ccc(Cl)cc1)CCOc1cccnc1 (centres undefined)
48 | 212 to 215 °C | Cc1c(C(=O)NCc2ccc3c(Br)c(OCc4nnn[nH]4)ccc3c2)oc2ccccc12
49 | 267 to 268 °C | CC(c1ccccc1)c1n[nH]c2c1c(=O)n(-c1ccccc1)c1ncccc21 (centres undefined)
50 | > 250 °C | Cc1c(C(=O)O)ccn2nc(-c3ccccc3)nc12
51 | 96 to 100 °C | O=Cc1cc([N+](=O)[O-])ccc1Sc1ccccc1
52 | 114 to 115 °C | COc1cccc(CC(=O)O)c1OCCCc1cn(-c2nnc(C(F)(F)F)s2)nc1C(C)C
53 | 120 °C | COc1ccc(C(=O)c2cc(-c3ccc(Cl)cc3)c(N3CCOCC3)s2)cc1
54 | 97 to 100 °C | COc1cc(Sc2ccncc2)ccc1[N+](=O)[O-]
55 | 174 to 178 °C | CCCc1c(CSc2nccc(OCC(=O)O)n2)ccc(C(C)=O)c1O
56 | 73 to 74 °C | CCCCCCN(C)C(=O)c1cccc(CN2C(=O)C3(COc4cc5c(cc43)CCO5)c3ccccc32)c1 (centres undefined)
57 | 260 to 262 °C | O=C1NC(=O)c2c1c(-c1ccccc1)cc1c2c2cc(O)ccc2n1CCN1CCOCC1
58 | 99 to 100 °C | Cc1oc(-c2ccccc2)nc1CCOc1ccc(CCCO)cc1
59 | 146 to 147 °C | Cc1oc(-c2ccccc2)nc1COc1ccc(CCC2SC(=O)NC2=O)cc1 (centres undefined)
60 | 119 to 121 °C | COc1ccc(OC)c(C(=O)c2cc3cc(OC)ccc3o2)c1
61 | 226 to 229 °C | Cc1cc(C)cc(-c2nc(NC(=O)Cc3ccccc3)sc2-c2ccncc2)c1

Row | melting point | Structure (SMILES)
62 | 232 °C | Cc1[nH]c(=O)cnc1-c1ccc(NC(=O)OCc2ccccc2)cc1
63 | 109 to 111 °C | COc1ccccc1N1CCN(Cc2ccccc2)CC1=O
64 | 97 to 98 °C | CCOC(=O)C=Cc1ccc(CCNS(=O)(=O)c2ccc(Cl)cc2)cc1
65 | 207 to 208 °C | Clc1ccc(N2CCN(Cc3n[nH]c4c3CCc3ccccc3-4)CC2)nc1
66 | 85.7 to 87.5 °C | c1ccc(COc2ccc3c(c2)OC[C@@H](c2ccccc2)[C@H]3c2ccc(OCCCCCCN3CCOCC3)cc2)cc1 (racemic)
67 | 81 to 88 °C | CNCCC(O)(c1ccc(Br)cc1)c1ccccn1 (centres undefined)
68 | 180 °C | CCCCc1nnc2ccccc2c1O
69 | 166 °C | CC(C)=CCC(C(=O)O)C(=O)N(Nc1ccccc1)c1ccccc1 (centres undefined)
70 | 87 to 89 °C | CCOC(=O)CCCCSc1nc(-c2ccccc2)c(-c2ccccc2)[nH]1
71 | 163 to 164 °C | CN(C)c1ccc(N(c2ccccc2)C2(c3ccc(N(C)C)cc3)OC(=O)c3cc(N(C)C)ccc32)cc1 (centres undefined)
72 | 128 to 130 °C | CCCNc1cccc(-c2ccnc3c(C(=O)c4cccs4)cnn23)c1
73 | 151 to 153 °C | CC1(c2ccccc2)OCC(=O)N(CCCN2C(=O)c3ccccc3C2=O)c2ccc(Cl)cc21 (centres undefined)
74 | 190 to 193 °C | CCOC(=O)c1cnc2c3ccccc3c(OC)cn2c1=O
75 | 80 °C | CCCCn1nnc2cc(C(O)c3ccsc3)ccc21 (centres undefined)
76 | 116 to 118 °C | COc1cc(C(C)C)c2c(c1)S(=O)(=O)N(COc1cc(C(F)(F)F)nn1Cc1ccccc1)C2=O
77 | 128 to 130 °C | COc1ccc2ccnc(N)c2c1
78 | 189 to 191 °C | COc1ccc(Nc2cc(C)nc(SCC(N)=NO)n2)cc1
79 | 165 to 167 °C | Cc1cccc(S(=O)(=O)N2CCn3c(c(C(N)=O)c(Cl)c3-c3ccccc3)C2)c1
80 | 134 to 136 °C | FC(F)(F)c1ccc(C=Cc2nc(CNc3ccc(OCCCn4ccnn4)cc3)co2)cc1

Row | melting point | Structure (SMILES)
81 | 247 to 249 °C | O=C1NC(O)C2=C1CN=C(c1ccccc1Cl)c1cc(Cl)ccc12 (centres undefined)
82 | 134 to 136 °C | CC(=O)Nc1nc(OCc2cccs2)ncc1F
83 | 142 to 143 °C | O=C(C1CCCCC1)N(CCN1CCN(c2cccc3cccnc23)CC1)c1ccccc1OC(F)(F)F
84 | 152 to 154 °C | C/C(=C\c1ccc(OCC(=O)O)cc1)c1ccc2c(c1)C(C)(C)CCC2(C)C
85 | 115 to 116 °C | CCCCCCCCCCCCCc1c(C(F)(F)F)noc1NS(=O)(=O)c1ccc(-c2ccccc2)cc1
86 | 178 to 179 °C | CCc1nc(Cc2ccc(NC(=O)/C=C/c3cnn(C)c3-c3ccc(F)cc3)cc2)cs1
87 | 66 to 67 °C | COc1ccc(C2(C)C(=O)c3c(N4CCN(C)CC4)cc(Cl)cc3N(Cc3ccccc3)C2=O)cc1 (centres undefined)
88 | 176 °C | CCOC(=O)c1cc(-c2ccc(Br)cc2)n(-c2ccc(S(C)(=O)=O)cc2)n1
89 | > 250 °C | Cc1nc2ccc3ccc(CNc4ccc(C(=O)O)c(F)c4)cc3c2c(=O)[nH]1
90 | 219 to 220 °C | C#CCN(Cc1cc2c(=O)[nH]c(COC(C)=O)nc2cc1Cl)c1ccc(C(=O)OC(C)(C)C)cc1
91 | 114 to 115 °C | O=C1CCN(CC=Cc2ccccc2)CC1C(c1ccccc1)c1ccccc1 (centres undefined)
92 | 193 to 195 °C | COc1ccc(C(=O)Nc2ccccc2)cc1NC(=S)Nc1ccc(S(N)(=O)=O)cc1
93 | 115 to 117 °C | CCN(CCCCC1CCN(C(c2ccccc2)c2ccccc2)CC1)C(=O)C=Cc1cccnc1
94 | 181 to 182 °C | CCc1ccc(-c2ccc3c(c2)C=C(C(=O)Nc2ccc(CN(C)C4CCOCC4)cc2)CCO3)cc1
95 | 251 to 253 °C | COc1ccc(NC(=O)C2=C(O)c3ccccc3S(=O)(=O)N2C)c(=O)cc1
96 | 184 to 186 °C | COC(=O)[C@H](Cc1ccc(NC(=O)c2c(Cl)cccc2Cl)cc1)NC(=S)C1(CCCSC)CCC1
97 | 65 to 69 °C | CCOC(=O)CSc1cc(C)nc(N)n1
98 | 82.8 °C | Cc1oc(-c2ccc(C(F)(F)F)cc2)nc1-c1ccc(Br)cc1
99 | 119 to 121 °C | CCOC(=O)c1ccc(NC(=O)C(CSC(C)=O)Cc2ccccc2)cc1 (centres undefined)
